Laboratory results as given in patent US4992450A, “Piperidine opioid antagonists” (Eli Lilly and Company, priority 1989, dated 1991).
Structures can show the parent of a compound that is named as a salt. Where two headings read alike, the source gives them in different places.

Assays:
kappa receptors = target: T1, kappa receptors (Rattus norvegicus, UniProt P34975); assay: Rat diuresis assay, antagonism of bremazocine-induced urination; assay type: in vivo, male Long-Evans hooded rats; conditions: sc, rats, s.c., urinary output reduced to 50% of effect of 0.08 mg/kg bremazocine alone
T1 construct: sixty male Long-Evans hooded rats; from tissue; host or cells: whole living male Long-Evans hooded rats (in vivo)
T1 sequence (P34975 whole entry): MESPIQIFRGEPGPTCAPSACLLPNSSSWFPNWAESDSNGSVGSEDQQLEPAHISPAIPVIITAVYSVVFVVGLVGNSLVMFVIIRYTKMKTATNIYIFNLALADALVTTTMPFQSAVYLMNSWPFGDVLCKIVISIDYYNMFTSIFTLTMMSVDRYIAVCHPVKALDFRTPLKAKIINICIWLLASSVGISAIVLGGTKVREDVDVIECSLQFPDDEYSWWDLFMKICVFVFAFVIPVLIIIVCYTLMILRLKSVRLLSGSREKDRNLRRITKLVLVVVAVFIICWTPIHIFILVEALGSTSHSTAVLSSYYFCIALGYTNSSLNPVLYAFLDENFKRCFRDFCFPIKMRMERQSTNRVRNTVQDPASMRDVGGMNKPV
Experimental: As such, the compounds of the invention were also evaluated in a rat diuresis assay conducted according to the following procedure described by Leander et al. in Drug Development Research 4:421-427 (1984) in an effort to further establish the ability of the present compounds to block kappa receptors.
According to this procedure, sixty male Long-Evans hooded rats (Charles River Breeding Laboratories, Portage, Mich.) weighing between about 300 and 500 grams each were housed either individually or in pairs in a temperature-controlled (23° C.) colony room which was illuminated between 6:00 A.M. and 6:00 P.M. Rodent chow and tap water were continuously available except during the measurement of urine output. The animals were used repeatedly, but no more frequently than twice a week.
The animals were then injected with various doses of the test compounds. To measure urine output, the animals were removed from the home cages, weighed, injected and placed in metabolism cages for 5 hr. Excreted urine was funneled into graduated cylinders. Cumulative urine volumes were determined at designated time intervals, usually at 2 and 5 hr after injection.
The compounds which are salt forms were dissolved in distilled water. If necessary, the compounds were dissolved in distilled water with the aid of either a few drops of lactic acid or hydrochloric acid and gentle warming. All injections were s.c. in a volume of 1 ml/kg of body weight. During tests for antagonism, two injections were given, one on each side of the body.
In the Table, column 1 provides the Example Number of the compound tested; column 2, the amount of compound in mg/kg necessary to reduce the urinary output to 50% of the effect produced by 0.08 mg/kg of bremazocine alone two hours after injection of bremazocine and the test compound; and column 3, the amount of compound in mg/kg necessary to reduce the urinary output to 50% of the effect produced by 0.08 mg/kg of bremazocine alone five hours after injection of bremazocine and the test compound.

[1] = system: meal fed obese Zucker rats; assay: Food consumption assay in meal fed obese Zucker rats; assay type: in vivo; conditions: Rattus norvegicus, sc, 4 h, amount to decrease food consumption 20% during first four hours
From the text: The following assay was employed to evaluate the ability of the compounds of the invention to effect food and water consumption of meal fed obese Zucker rats.
According to this procedure, 3-4 month old obese Zucker rats were trained to eat food daily from 8:00 A.M. to 4:00 P.M. only, such that the body weight gain approximates that if the rats were fed ad libitum. These rats were allowed to consume water at all times. Four groups of rats with four rats in each group, two female and two male, were formed. One group served as control for the other three groups each day. Each of the other groups were given a subcutaneous dose of the compound to be evaluated. The test compound was formulated in physiological saline containing 10% dimethylsulfoxide by volume.
Animals remained drug free for 4 days before the next test. Food and water consumption of each rat were measured for the first four hours. A test on one compound was run for three consecutive days. The drug effect was expressed as the percent of the control for that test day.
In the Table, column 1 gives the Example Number of the compound evaluated; and column 2 provides the ED20 in mg/kg, wherein ED20 represents the amount of compound evaluated in mg/kg necessary to decrease food consumption 20% during the first four hours of the experiment.

mu receptor [2] = target: T2, mu receptor (Mus musculus, UniProt P42866); assay: Mouse writhing assay, antagonism of morphine analgesia (mu); assay type: in vivo, CF-1 male mice; conditions: sc, read-out: Mu AD50
T2 construct: Five CF-1 male mice (Charles River, Portage, Mich.); from tissue; host or cells: whole living CF-1 male mice (in vivo)
T2 sequence (P42866 whole entry): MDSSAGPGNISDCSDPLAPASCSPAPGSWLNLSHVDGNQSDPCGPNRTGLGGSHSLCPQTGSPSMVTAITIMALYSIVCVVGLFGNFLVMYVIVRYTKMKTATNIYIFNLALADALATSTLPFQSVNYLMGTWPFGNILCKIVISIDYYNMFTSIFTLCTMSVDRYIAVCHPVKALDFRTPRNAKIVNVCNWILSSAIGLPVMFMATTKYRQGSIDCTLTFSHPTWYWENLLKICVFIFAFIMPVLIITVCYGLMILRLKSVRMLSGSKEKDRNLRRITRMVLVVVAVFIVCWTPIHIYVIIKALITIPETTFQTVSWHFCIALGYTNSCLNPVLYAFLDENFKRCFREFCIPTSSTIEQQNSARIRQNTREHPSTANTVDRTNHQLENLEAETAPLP

mu receptor [3] = target: T3, mu receptor (Rattus norvegicus, UniProt P33535); assay: Opioid receptor binding displacement assay, mu site (rat whole brain minus cerebellum, 3H ligand); design: species or system Male Sprague Dawley rats
T3 construct: rat whole brain minus cerebellum for mu and delta sites; from tissue; host or cells: rat whole brain minus cerebellum, frozen pellet fraction
T3 sequence (P33535 whole entry): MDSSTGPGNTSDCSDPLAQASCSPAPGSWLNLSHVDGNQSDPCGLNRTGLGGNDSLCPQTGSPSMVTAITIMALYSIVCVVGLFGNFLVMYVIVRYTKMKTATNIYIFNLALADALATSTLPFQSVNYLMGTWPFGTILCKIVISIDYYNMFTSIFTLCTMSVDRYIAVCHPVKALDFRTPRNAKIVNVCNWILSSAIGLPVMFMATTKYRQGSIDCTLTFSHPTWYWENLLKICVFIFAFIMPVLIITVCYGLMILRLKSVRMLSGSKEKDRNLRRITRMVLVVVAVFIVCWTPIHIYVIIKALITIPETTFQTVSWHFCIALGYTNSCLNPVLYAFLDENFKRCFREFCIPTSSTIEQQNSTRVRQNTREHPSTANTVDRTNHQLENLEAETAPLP
Experimental: (§1) This assay was conducted by the following procedure.
(§2) Male Sprague Dawley rats for mu and delta site experiments and male Hartley guinea pigs for kappa site experiments were sacrificed via decapitation and the brains were removed. The brain tissue, rat whole brain minus cerebellum for mu and delta sites and guinea pig cortex for the kappa site, was homogenized in a Teflon and glass tissue homogenizer. A supernatant I, pellet IV, fraction was frozen in a nitrogen freezer at 1.33 g/ml concentration and stored for not longer than five weeks prior to use. Pellets were rehydrated with physiological buffer prior to use.
(§3) The reaction was initiated by the addition of the rehydrated tissue which has been preincubated at 37° C. for 20 minutes. The reaction mixture was incubated in a 37° C. water bath for 20 minutes. The reaction was terminated by rapid filtration, (Amicon vacuum manifolds), through Whatman GF/C glass filters that had been presoaked in Krebs-Hepes buffer pH 7.4. The filters were then washed 2× with 5 ml of ice cold Krebs-Hepes buffer pH 7.4. Washed filters were placed in scintillation vials and 10 ml PCS, (Amersham), was added and samples counted in a Searle D-300 beta counter. Means and standard error statistics were calculated for triplicate experimental determinations in certain cases. The procedure was slightly modified for the kappa site. The tissue was pretreated with 100 nM concentrations of mu and delta receptor site blockers. The incubation time for the reaction mixture was 45 minutes at 37° C.

kappa receptor [4] = target: T4, kappa receptor (Mus musculus, UniProt P33534); assay: in vivo; design: species or system CF-1 male mice; conditions: sc, read-out: Kappa AD50
T4 construct: Five CF-1 male mice (Charles River, Portage, Mich.); from tissue; host or cells: whole living CF-1 male mice (in vivo)
T4 sequence (P33534 whole entry): as the sequence (P34975 whole entry) above, with E11D, A17S, P51S, V308A counted along it

kappa receptor [5] = target: T5, kappa receptor (Cavia porcellus, UniProt P41144); assay: Opioid receptor binding displacement assay, kappa site (guinea pig cortex, 3H ligand); design: species or system male Hartley guinea pigs
T5 construct: guinea pig cortex for the kappa site; from tissue; host or cells: guinea pig cortex, frozen pellet fraction
T5 sequence (P41144 whole entry): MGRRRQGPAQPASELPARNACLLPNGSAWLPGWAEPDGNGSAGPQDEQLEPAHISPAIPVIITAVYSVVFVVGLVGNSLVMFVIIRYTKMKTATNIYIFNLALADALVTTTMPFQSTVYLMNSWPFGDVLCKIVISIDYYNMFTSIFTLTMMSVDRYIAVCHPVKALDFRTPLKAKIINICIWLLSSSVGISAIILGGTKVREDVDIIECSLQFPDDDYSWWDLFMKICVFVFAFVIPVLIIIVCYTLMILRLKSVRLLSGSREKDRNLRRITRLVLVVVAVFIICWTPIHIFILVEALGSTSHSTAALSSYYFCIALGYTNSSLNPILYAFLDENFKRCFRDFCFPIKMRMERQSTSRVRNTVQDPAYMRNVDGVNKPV
Experimental: as §1, §2, §3

[6] = 2 h, two hours after injection, read-out: AD50 Two Hours
[7] = 5 h, five hours after injection, read-out: AD50 Five Hours
[8] = rat brain minus cerebellum, pH 7.4, 37° C., 20 minutes, read-out: Ki Mu
[9] = guinea pig cortex, pH 7.4, 37° C., 45 minutes, mu and delta sites blocked (100 nM), read-out: Ki Kappa

`CC(C)CCCN1CCC(C)(c2cccc(O)c2)C(C)C1` (stereo not drawn) [Example 15, trans-(±)-1-(4-Methylpentyl)-3,4-dimethyl-4-(3-hydroxyphenyl)piperidine hydrochloride] gave an ED50 (kappa receptors; [6]) of 0.27 mg/kg, an ED50 (kappa receptors; [7]) of 0.39 mg/kg and an ED20 [1] of 3.65 mg/kg. For the same compound, the ED50 (mu receptor [2]) was 0.11 mg/kg, the Ki (mu receptor [3]) was 1.25 ± 0.4 nM and the ED50 (kappa receptor [4]) was 0.09 mg/kg. For the same compound, the Ki (kappa receptor [5]) was 9.43 ± 1.67 nM.
`C[C@H]1CN(CCC(O)c2ccccc2)CC[C@@]1(C)c1cccc(O)c1` (relative stereo) [Compound A, 4β-(3-Hydroxyphenyl)-3β,4α-dimethyl-α-phenyl-1-piperidinepropanol hydrochloride, reference compound] was tested, and the ED50 (kappa receptors; [6]) was 4.09 mg/kg, the ED50 (kappa receptors; [7]) was 2.65 mg/kg and the ED20 [1] was 0.55 mg/kg. For the same compound, the ED50 (mu receptor [2]) was 0.05 mg/kg, the Ki (mu receptor [3]; [8]) was 1 nM and the ED50 (kappa receptor [4]) was 0.92 mg/kg. The Ki (kappa receptor [5]; [9]) was 22.7 nM.
Work on `C[C@H]1CN(CC[C@H](O)C2CCCCC2)CC[C@@]1(C)c1cccc(O)c1` [Example 23, trans-(+)-1-[S-(3-Hydroxy-3-cyclohexylpropyl)]-3,4-dimethyl-4-(3-hydroxyphenyl)piperidine] yielded an ED50 (kappa receptors; [6]) of 0.4 mg/kg, an ED50 (kappa receptors; [7]) of 0.38 mg/kg and an ED20 [1] of 0.05 mg/kg. The ED50 (mu receptor [2]) was 0.01 mg/kg, the Ki (mu receptor [3]; [8]) was 0.41 ± 0.09 nM and the ED50 (kappa receptor [4]) was 0.07 mg/kg. For the same compound, the Ki (kappa receptor [5]; [9]) was 2.02 ± 0.46 nM.
